Measured values as given in PMC10408170, “Synthesis, DFT and molecular docking of novel (Z)-4-bromo-N-(4-butyl-3 (quinolin-3-yl)thiazol-2(3H)-ylidene)benzamide as elastase inhibitor” (BMC Chemistry, 2023).

Molecular target: T1, Elastase from porcine pancreas (Sus scrofa, UniProt P00772)
T1 construct: gene CELA1
Assay: enzyme inhibition assay, p-nitroaniline release from N-succinyl-Ala-Ala-Ala-p-nitroanilide
Type: biochemical

T1 sequence (P00772 27-266): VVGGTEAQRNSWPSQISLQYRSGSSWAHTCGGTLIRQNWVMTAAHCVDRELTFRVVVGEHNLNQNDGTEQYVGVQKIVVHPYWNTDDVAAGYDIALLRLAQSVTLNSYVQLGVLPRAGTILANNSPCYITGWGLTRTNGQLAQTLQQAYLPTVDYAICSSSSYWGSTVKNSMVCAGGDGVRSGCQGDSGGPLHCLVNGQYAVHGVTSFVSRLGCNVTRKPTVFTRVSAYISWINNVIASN

- IC50: 1210 nM
SMILES: CCCCc1cs/c(=N\C(=O)c2ccc(Br)cc2)n1-c1cnc2ccccc2c1 [compound 6, (Z)-4-bromo-N-(4-butyl-3-(quinolin-3-yl)thiazol-2(3H)-ylidene)benzamide]
